{"source": "patent US8445190B2", "about": "“Method of inhibiting biomaterial-induced procoagulant activity using complement inhibitors” (The Trustees of the University of Pennsylvania, priority 2008, dated 2013)", "key": {"[1]": {"tested_on": "TF-dependent procoagulant activity of PMN culture supernatants", "experiment": "mPT of PMN supernatants after incubation with serum preincubated with polysulfone hemodialysis filter fibers", "type": "cell-based, human", "conditions": "for mPT: FIG. 5C", "procedure": "(§1) FIG. 5: Hemodialysis filter fibers induce in vitro TF dependent procoagulant properties in both ESRD and healthy serum through complement activation. […] C3b generation was detected by […]. CVF-activated plasma was used as a standard for 100% complement activation. The percentage of complement activation is depicted in the diagram. B: Serum from healthy donors was preincubated with hollow fibers from polysulfone hemodialysis filters at different time periods (10, 30, 60 & 120 min). PMNs were incubated with the pretreated serum and their supernatants were assayed for TF with mPT. A time-dependent procoagulant activity was observed (bar 2: 28.06±0.21, 3: 27.32±0.39, 4: 25.65±0.78, 5: 24.67±0.47, p<0.01 compared to bar 1: 31.81±0.28), which was blocked by the addition of anti-TF mAb in supernatants showing the highest procoagulant effect (bar 6: 31.49±0.12, p<0.05 compared to bar 5). C: Predialysis ESRD serum preincubated for 60 min with filter fibers, induced stronger procoagulant activity in PMN culture supernatants compared to when healthy serum was used (bars 3: 25.65±0.78, 6: 20.06±0.35, p<0.01 compared to bars 1: 33.12±0.25, 2: 29.07±0.33, respectively). Inhibitions with compstatin or C5aR antagonist, in both pre-treated sera, elucidated that the observed TF-dependent procoagulant activity was complement mediated (bars 4: 29.60±0.57, 5: 29.15±0.49 & 7: 26.85±0.21, 8: 26.05±0.35, p<0.01 compared to bars 3 and 6, respectively).\nComplement and anaphylatoxin inhibition studies. I) Compstatin, a 13-residue cyclic peptide (Ac-I[CVWQDWGAHRTC]TNH2) that inhibits the cleavage of native C3 by the C3 convertase, was used as a specific inhibitor of complement activation at the C3 level. […]\nAt the end of the incubation period, supernatants of cells were collected by centrifugation at 800 g for 10 min and were checked a second time to confirm the absence of cells and platelets. The coagulation activity properties (TF/FVIIa binding activity) of the cell supernatants were determined using a modified prothrombin time (mPT) assay. […]"}, "[2]": {"tested_on": "TF-dependent procoagulant activity of PMN culture supernatants", "experiment": "modified prothrombin time (mPT) of supernatants of healthy PMNs incubated with ESRD hemodialysis serum", "type": "cell-based, human", "conditions": "for mPT values: FIG. 4A; for effect on procoagulant activity (mPT) induced by ESRD serum in PMN supernatants: in words, FIG. 1A / FIG. 4A", "excerpt": "(§2) Complement and anaphylatoxin inhibition studies. I) Compstatin, a 13-residue cyclic peptide (Ac-I[CVWQDWGAHRTC]TNH2) that inhibits the cleavage of native C3 by the C3 convertase, was used as a specific inhibitor of complement activation at the C3 level. In certain studies, a compstatin analog (1-methyl tryptophan as the 4th residue) was used. […] II) SB-290152, a selective nonpeptide antagonist of the complement anaphylatoxin receptor C3aR, was used in this study to dissect the involvement of C3aR signalling in the generation of neutrophil derived TF [27]. III) To block C5aR stimulation on neutrophils, a small cyclic hexapeptide (AcF-[OPdChaWR]) that acts as a selective C5aR antagonist was used. Sera were pre-incubated for 30 min with Compstatin or its linear analogue (15 μM final concentration), before incubation with leukocytes. Furthermore, serum for stimulation was added to leukocytes that had been pre-incubated for 30 min with C3aRa or C5aRa (5-10 μM final concentration). Approximately […] washed cells from healthy donors were used for the subsequent incubations, The final volume was adjusted with PBS at 250 μl and the leukocytes were incubated for 90-120 min at 37° C.\nModified prothrombin time (mPT) assay to examine TF mediated coagulation activity in cell supernatants, complement inhibition and anaphylatoxin receptor studies. Since it has been shown previously that TF dependent procoagulant activity in leukocyte culture supernatants is altered after C5a/C5aR stimulation or blockade, the mPT method was used in order to estimate primarily the kinetics of TF induction. The presence of TF in supernatants is probably due to the presence of the soluble, spliced TF isoform or TF microparticles.\nAt the end of the incubation period, supernatants of cells were collected by centrifugation at 800 g for 10 min and were checked a second time to confirm the absence of cells and platelets. The coagulation activity properties (TF/FVIIa binding activity) of the cell supernatants were determined using a modified prothrombin time (mPT) assay. Briefly, after performing the “classic” PT test (100 μl platelet poor plasma [PPP] plus 200 μl thromboplastin ISI 1.7 (Instrumentation Laboratory, Milan, Italy), the modified PT analysis was carried out. Namely, 125 μl of cell supernatant and 75 μl thromboplastin were added to 100 μl of PPP to measure the changes of PT. As control of mPT, 125 μl of PBS was used instead of cell supernatant and the in vitro clotting time usually ranged from 31 to 34 sec.\nTo verify that the thromboplastic activity was due to TF alone, supernatants were incubated for 30 min with a specific neutralizing anti-TF monoclonal antibody (mAb, No 4509, American Diagnostica, Greenwich, Conn., USA), 10 μg/ml, at room temperature. PT was then measured by the mPT method. Non-specific controls involved incubation with the same subclass and concentration of mouse anti-human antibodies, as well as with different secondary antibodies.\nSerum of ESRD patients exerts procoagulant activity through TF induction and follows a time dependent manner during the hemodialysis course. […] The procoagulant activity of the above cell culture supernatants was measured using the mPT method."}, "[3]": {"tested_on": "CD11b on blood neutrophils", "experiment": "hemodialysis simulation with whole blood: flow cytometry of CD11b on blood neutrophils", "type": "cell-based, human", "conditions": "in words; 40 uM in whole blood circuit; FIG. 7B", "excerpt": "(§3) FIG. 7. Complement activation during hemodialysis simulation is reduced or prevented by a compstatin analog. […] A: ELISA detection of complement activation fragment C3b using a C3-9 mAB. B: Detection of cellular cascade activation by flow cytometry after surface staining of blood neutrophils for CD11b. C: Detection of coagulation cascade activation by flow cytometry after intracellular staining of blood neutrophils for tissue factor (TF).\n(§4) Whole blood was collected from healthy volunteers. […] All experiments were started within 30 min after blood collection.\n(§5) To minimize the blood volume needed, HPH Junior polysulfone dialyzers (Minntech Corporation) were used. Standard bloodline components served as tubing system (Arterial & venous blood lines, Set a/v for Fresenius 2008/4008, HMC Premedical S.p.A., Italy). […]\n(§6) To examine the activation of crucial pathways involved in the interaction of blood with the artificial surface of the dialyzer, complement, coagulation and neutrophil activation were analyzed. Briefly, complement activation was measured in plasma using a monoclonal antibody C3-9 (2 ug/ml), which recognizes a neoantigen that is exposed in C3(H2O), C3b and C3c but not in native C3. Neutrophil activation was assessed using flow cytometry after surface staining of CD11b (PE Mouse Anti-human CD11b/Mac-1, Cat. No 555388, BD Pharmigen). […]"}, "[4]": {"tested_on": "tissue factor (TF) in blood neutrophils", "experiment": "hemodialysis simulation with whole blood: flow cytometry of intracellular tissue factor in blood neutrophils", "type": "cell-based, human", "conditions": "in words; 40 uM in whole blood circuit; FIG. 7C", "excerpt": "as §3, §4, §5, §6"}, "[5]": {"tested_on": "complement activation (C3b)", "experiment": "hemodialysis simulation with whole blood: ELISA of C3 cleavage products (C3-9 mAb) in plasma", "type": "biochemical, human", "conditions": "in words; 40 uM in whole blood circuit; FIG. 7A", "excerpt": "as §3, §4, §5, §6"}, "[6]": {"tested_on": "complement activation (C3b generation)", "experiment": "C3b generation ELISA in plasma incubated with hemodialysis filter fibers", "type": "biochemical", "conditions": "in words; FIG. 5A; plasma with 15 mg fibers, over time, two concentrations", "procedure": "as §1, with “Inhibitions with compstatin or C5aR antagonist, in both pre-treated sera, elucidated that the observed TF-dependent procoagulant activity was complement mediated (bars 4: 29.60±0.57, 5: 29.15±0.49 & 7: 26.85±0.21, 8: 26.05±0.35, p<0.01 compared to bars 3 and 6, respectively).” left out"}, "[7]": {"tested_on": "TF mRNA expression in PMNs", "experiment": "real time RT-PCR of TF mRNA in PMNs incubated with activated ESRD serum", "type": "cell-based, human", "conditions": "FIG. 4B", "procedure": "4: Involvement of the complement pathway in the procoagulant properties of ESRD serum. […] In contrast, both a selective C3aR antagonist (10 μM-30 min) and a non-active linear analogue of compstatin had no effect on mPT values (bars 6, 7: 22.99±0.26 and 24.16±0.23, respectively; p: n.s. vs. bar 3).\nas §2\nRNA extraction, RT & relative quantitative real-time PCR analysis. […] In order to quantify the relative expression level of the two TF isoforms with coagulant properties [(full-length TF (referred to hereafter as ‘TF’) and alternative spliced TF (asTF)], isoform specific real-time PCR was performed. In each sample TF, asTF and GAPDH mRNA sequence-specific primers and probes for detection were applied. The 2^−DDCT method was used for quantification of the target gene expression."}, "[8]": {"conditions": "PMNs preincubated with receptor antagonist (10 μM-30 min), then ESRD serum of 15 to 30 min of hemodialysis, no antagonist bar 3: 22.96±0.22, control bar 1: 31.96±0.21"}}, "note": "Where no end group is shown, it is not given here.", "data": [{"molecule": "NC(N)=NCCC[C@H](NC(=O)COCC(c1ccccc1)c1ccccc1)C(=O)O", "note": "[C3aR antagonist, SB-290152]", "values": [{"measurement": "effect on procoagulant activity induced by filter-fiber treated serum in neutrophil supernatants", "setting": "[1]; in words, FIG. 5B/5C", "value": "no effect on the procoagulant activity"}, {"measurement": "mPT values", "setting": "[2]; [8]", "value": "22.99±0.26"}, {"measurement": "effect on procoagulant activity (mPT) induced by ESRD serum in PMN supernatants", "setting": "[2]", "value": "did not affect the mPT values"}]}, {"molecule": "I[CV^(1−Me)WQDWGAHRC]I—NH2 [compstatin analog 4[1MeW]]", "values": [{"measurement": "effect on cellular activation (CD11b surface staining of neutrophils)", "setting": "[3]", "value": "attenuated"}, {"measurement": "effect on coagulation cascade activation (intracellular TF in neutrophils)", "setting": "[4]", "value": "attenuated"}, {"measurement": "effect on time-dependent complement activation (C3 cleavage products in plasma)", "setting": "[5]", "value": "abrogated this activation"}]}, {"molecule": "IAVWQDWGAHRTAT-NH2 [non-active linear analogue of compstatin, reference compound]", "values": [{"measurement": "inhibition of complement activation induced by hemodialysis biomaterials (C3b generation)", "setting": "[6]", "value": "not inhibited"}, {"measurement": "mPT values", "setting": "[2]; ESRD serum taken at 15 to 30 min of hemodialysis treated with peptide (15 μM-30 min), healthy donor's PMNs (N=6), untreated serum bar 3: 22.96±0.22, control bar 1: 31.96±0.21", "value": "24.16±0.23"}]}, {"molecule": "Acetyl-Phe-[Orn-Pro-D-cyclohexylalanine-Trp-Arg] (FXPXWR; non-natural residues; cyclised or stapled) [C5aR antagonist]", "values": [{"measurement": "average DCt of TF mRNA", "setting": "[7]; PMNs incubated with activated serum bar 1: 7.92±0.29", "value": "9.02±0.62"}, {"measurement": "fold decrease of TF mRNA expression", "setting": "[7]; vs. PMNs incubated with activated serum (bar 1)", "value": 2.14, "unit": "fold"}, {"measurement": "effect on TF expression in PMNs (2^−DDCT analysis)", "setting": "[7]; in words", "value": "inhibited the stimulation effect"}, {"measurement": "mPT", "setting": "[1]; healthy serum preincubated 60 min with filter fibers, without inhibitor bar 3: 25.65±0.78", "value": "29.15±0.49"}, {"measurement": "mPT", "setting": "[1]; predialysis ESRD serum preincubated 60 min with filter fibers, without inhibitor bar 6: 20.06±0.35", "value": "26.05±0.35"}, {"measurement": "mPT values", "setting": "[2]; [8]", "value": "31.65±0.28"}, {"measurement": "effect on procoagulant activity (mPT) induced by ESRD serum in PMN supernatants", "setting": "[2]", "value": "abrogated the observed procoagulant activity"}]}]}
